Bridge positions count the residues as written; N and C are the ends. Square brackets hold non-standard residues; d marks the D form. Peptide text beside a SMILES is read from it. * marks the point of attachment. ξ: configuration not given here. Tyr(3-NO2) = N[C@@H](Cc1ccc(O)c([N+](=O)[O-])c1)C(=O)O; Phe(4-COOH) = N[C@@H](Cc1ccc(C(=O)O)cc1)C(=O)O; Phe(4-CH2NH2) = NCc1ccc(C[C@H](N)C(=O)O)cc1; Bip = N[C@@H](Cc1ccc(-c2ccccc2)cc1)C(=O)O; Phe(3-Me) = Cc1cccc(C[C@H](N)C(=O)O)c1; Val(3-OH) = CC(C)(O)[C@H](N)C(=O)O; 4Pal = N[C@@H](Cc1ccncc1)C(=O)O; Cha = N[C@@H](CC1CCCCC1)C(=O)O; Ile(3ξ) = CCC(C)[C@H](N)C(=O)O; Thr(3ξ) = CC(O)[C@H](N)C(=O)O; Pip = O=C(O)[C@@H]1CCCCN1; dDab = NCC[C@@H](N)C(=O)O; Carboxymethyl = O=C(O)C*; NMeA = CN[C@@H](C)C(=O)O; Orn = NCCC[C@H](N)C(=O)O; Dab = NCC[C@H](N)C(=O)O; Dap = NC[C@H](N)C(=O)O; Piv = CC(C)(C)C(=O)*
Biological target: T1, PE-labeled human PD-L1-Ig binding to Jurkat cell line over-expressing human PD-1 (Jurkat-PD-1) (Homo sapiens, UniProt Q15116)
T1 construct: expressed in transfected cells; host or cells: Jurkat
Assay: Jurkat-PD-1 Cell Binding High-Content Screening Assay (CBA): Method 1
Settings: Jurkat-hPD-1 cells, PE-labeled PD-L1-Ig 20 nM final; read-out: Jurkat HPDL1 PD1 IC50 (uM) (Method 1)

T1 sequence (Q15116 25-288): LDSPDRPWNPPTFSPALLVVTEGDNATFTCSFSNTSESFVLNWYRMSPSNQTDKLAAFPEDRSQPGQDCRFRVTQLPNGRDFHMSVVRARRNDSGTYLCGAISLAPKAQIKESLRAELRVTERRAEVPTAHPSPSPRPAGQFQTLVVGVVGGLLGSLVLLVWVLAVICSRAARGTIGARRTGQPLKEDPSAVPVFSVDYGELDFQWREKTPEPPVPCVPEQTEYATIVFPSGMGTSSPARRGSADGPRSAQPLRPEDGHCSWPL

SMILES	IC50 [µM]
CC(C)C[C@@H]1NC(=O)[C@H](CCCNC(=N)N)NC(=O)[C@@H](CC(C)C)NC(=O)[C@H](C)N(C)C(=O)[C@H](CCCN)NC(=O)[C@H](Cc2ccc(-c3ccccc3)cc2)NC(=O)[C@H](C(C)C)NC(=O)[C@H](Cc2c[nH]c3ccccc23)NC(=O)[C@H](CC(=O)O)NC(=O)[C@H](Cc2ccc(O)cc2)NC(=O)[C@H](CC(N)=O)NC(=O)CSC[C@@H](C(=O)N[C@@H](C)C(N)=O)NC(=O)[C@H]([C@@H](C)O)NC(=O)[C@H](C(C)C)NC1=O [Compound 1288] ({CH2CO}-NYDWV[Bip][Orn][NMeA][dL]RLVTCA-NH2; thioether N-14)	0.08
CC(C)C[C@@H]1NC(=O)[C@H](CCN)NC(=O)[C@@H](CC(C)C)NC(=O)[C@H](C)N(C)C(=O)[C@H](CCCNC(=N)N)NC(=O)[C@H](Cc2ccc(-c3ccccc3)cc2)NC(=O)[C@H](C(C)C)NC(=O)[C@H](Cc2c[nH]c3ccccc23)NC(=O)[C@H](CC(=O)O)NC(=O)[C@H](Cc2ccc(O)cc2)NC(=O)[C@H](CC(N)=O)NC(=O)CSC[C@@H](C(=O)N[C@@H](CCC(=O)O)C(N)=O)NC(=O)[C@H]([C@@H](C)O)NC(=O)[C@H](C(C)C)NC1=O [Compound 1172] ({CH2CO}-NYDWV[Bip]R[NMeA][dL][Dab]LVTCE-NH2; thioether N-14)	0.29
CCC(C)[C@@H]1NC(=O)[C@H](Cc2ccc(-c3ccccc3)cc2)NC(=O)[C@H](CC(C)C)NC(=O)[C@H](Cc2c[nH]c3ccccc23)NC(=O)[C@H](CC(=O)O)NC(=O)[C@H](Cc2ccc(C(=O)O)cc2)NC(=O)[C@H](Cc2ccc(OCC(=O)O)cc2)NC(=O)CSC[C@@H](C(=O)N[C@@H](CC(N)=O)C(N)=O)NC(=O)[C@H](CCC(=O)O)NC(=O)[C@H](C(C)C)NC(=O)[C@H](CC2CCCCC2)NC(=O)[C@H](CCN)NC(=O)[C@@H](CC(C)C)NC(=O)[C@H](C)N(C)C1=O (stereo partly drawn) [Compound 1924] ({CH2CO}-Y(Carboxymethyl)[Phe(4-COOH)]DWL[Bip][Ile(3ξ)][NMeA][dL][Dab][Cha]VECN-NH2; thioether N-14)	0.04
CC(C)C[C@@H]1NC(=O)[C@H](Cc2c[nH]c3ccccc23)NC(=O)[C@H](CC(=O)O)NC(=O)[C@H](Cc2ccncc2)NC(=O)[C@H](Cc2ccc(OCC(=O)O)cc2)NC(=O)CSC[C@@H](C(=O)N[C@@H](CC(N)=O)C(N)=O)NC(=O)[C@H](CO)NC(=O)[C@H](C(C)C)NC(=O)[C@H](CC2CCCCC2)NC(=O)[C@H](CCN)NC(=O)[C@@H](CC(C)C)NC(=O)[C@H](C)N(C)C(=O)[C@H](Cc2ccc(O)cc2)NC(=O)[C@H](Cc2ccc(-c3ccccc3)cc2)NC1=O [Compound 1906] ({CH2CO}-Y(Carboxymethyl)[4Pal]DWL[Bip]Y[NMeA][dL][Dab][Cha]VSCN-NH2; thioether N-14)	0.05
CC(C)C[C@@H]1NC(=O)[C@H](Cc2c[nH]c3ccccc23)NC(=O)[C@H](CC(=O)O)NC(=O)[C@H](Cc2ccc(OCC(=O)O)cc2)NC(=O)[C@H](Cc2ccccc2)NC(=O)CSC[C@@H](C(=O)N[C@@H](C)C(N)=O)NC(=O)[C@H](CO)NC(=O)[C@H](C(C)C)NC(=O)[C@H](CC(C)C)NC(=O)[C@H](CC(N)=O)NC(=O)[C@@H](C)NC(=O)[C@H](C)N(C)C(=O)[C@H](C(C)C)NC(=O)[C@H](Cc2ccc(-c3ccccc3)cc2)NC1=O [Compound 1737] ({CH2CO}-FY(Carboxymethyl)DWL[Bip]V[NMeA][dA]NLVSCA-NH2; thioether N-14)	0.02
CC(C)C[C@@H]1NC(=O)[C@H](CCN)NC(=O)[C@@H](CC(C)C)NC(=O)[C@H](C)N(C)C(=O)[C@H](C(C)C)NC(=O)[C@H](Cc2ccc(-c3ccccc3)cc2)NC(=O)[C@H](C(C)C)NC(=O)[C@H](Cc2c[nH]c3ccccc23)NC(=O)[C@H](CC(=O)O)NC(=O)[C@H](Cc2ccc(O)cc2)NC(=O)[C@H](CN)NC(=O)CSC[C@@H](C(=O)N[C@@H](C)C(N)=O)NC(=O)[C@H]([C@@H](C)O)NC(=O)[C@H](C(C)C)NC1=O [Compound 1360] ({CH2CO}-[Dap]YDWV[Bip]V[NMeA][dL][Dab]LVTCA-NH2; thioether N-14)	0.02
CC(C)C[C@@H]1NC(=O)[C@H](CCCN)NC(=O)[C@@H](CC(C)C)NC(=O)[C@H](C)N(C)C(=O)[C@H](CCCNC(=N)N)NC(=O)[C@H](Cc2ccc(-c3ccccc3)cc2)NC(=O)[C@H](C(C)C)NC(=O)[C@H](Cc2c[nH]c3ccccc23)NC(=O)[C@H](CC(=O)O)NC(=O)[C@H](Cc2ccc(O)c([N+](=O)[O-])c2)NC(=O)[C@H](CC(N)=O)NC(=O)CSC[C@@H](C(=O)N[C@@H](C)C(N)=O)NC(=O)[C@H]([C@@H](C)O)NC(=O)[C@H](C(C)C)NC1=O [Compound 1154] ({CH2CO}-N[Tyr(3-NO2)]DWV[Bip]R[NMeA][dL][Orn]LVTCA-NH2; thioether N-14)	0.03
Cc1cccc(C[C@@H]2NC(=O)[C@H](CC(=O)O)NC(=O)[C@H](Cc3ccc(OCC(=O)O)cc3)NC(=O)[C@H](Cc3ccncc3)NC(=O)CSC[C@@H](C(=O)N[C@@H](CCNC(=O)C(C)(C)C)C(N)=O)NC(=O)[C@H]([C@@H](C)O)NC(=O)[C@H](C(C)C)NC(=O)[C@H](CC3CCCCC3)NC(=O)[C@H](CCN)NC(=O)[C@@H](CC(C)C)NC(=O)[C@H](C)N(C)C(=O)[C@H](Cc3ccc(OCC(=O)O)cc3)NC(=O)[C@H](Cc3ccc(-c4ccccc4)cc3)NC(=O)[C@H](Cc3ccc(OCC(=O)O)cc3)NC2=O)c1 [Compound 1867] ({CH2CO}-[4Pal]Y(Carboxymethyl)D[Phe(3-Me)]Y(Carboxymethyl)[Bip]Y(Carboxymethyl)[NMeA][dL][Dab][Cha]VTC[Dab](Piv)-NH2; thioether N-14)	0.03
CC(C)C[C@@H]1NC(=O)[C@H](CCCCN)NC(=O)[C@@H](CC(C)C)NC(=O)[C@H](C)N(C)C(=O)[C@H](CCCNC(=N)N)NC(=O)[C@H](Cc2ccc(-c3ccccc3)cc2)NC(=O)[C@H](C(C)C)NC(=O)[C@H](Cc2c[nH]c3ccccc23)NC(=O)[C@H](CC(=O)O)NC(=O)[C@H](Cc2ccc(O)cc2)NC(=O)[C@H](CC(N)=O)NC(=O)CSC[C@@H](C(=O)N[C@@H](CCC(=O)O)C(N)=O)NC(=O)[C@H]([C@@H](C)O)NC(=O)[C@H](C(C)C)NC1=O [Compound 1173] ({CH2CO}-NYDWV[Bip]R[NMeA][dL]KLVTCE-NH2; thioether N-14)	0.22
CC(C)C[C@H]1NC(=O)[C@H](C)N(C)C(=O)[C@H](C(C)C)NC(=O)[C@H](Cc2ccc(-c3ccccc3)cc2)NC(=O)[C@H](C(C)C)NC(=O)[C@H](Cc2c[nH]c3ccccc23)NC(=O)[C@H](CC(=O)O)NC(=O)[C@H](Cc2ccncc2)NC(=O)[C@H](Cc2ccc(CN)cc2)NC(=O)CSC[C@@H](C(N)=O)NC(=O)[C@H](CO)NC(=O)[C@H](C(C)C)NC(=O)[C@H](CC2CCCCC2)NC(=O)[C@H](CC(N)=O)NC1=O [Compound 2242] ({CH2CO}-[Phe(4-CH2NH2)][4Pal]DWV[Bip]V[NMeA][dL]N[Cha]VSC-NH2; thioether N-14)	0.03
CC(C)C[C@@H]1NC(=O)[C@H](Cc2c[nH]c3ccccc23)NC(=O)[C@H](CC(=O)O)NC(=O)[C@H](Cc2ccncc2)NC(=O)[C@H](Cc2ccc(OCC(=O)O)cc2)NC(=O)CSC[C@@H](C(=O)N[C@H](CCN)C(N)=O)NC(=O)[C@H]([C@@H](C)O)NC(=O)[C@H](C(C)C)NC(=O)[C@H](CC2CCCCC2)NC(=O)[C@H](CCN)NC(=O)[C@@H](CC(C)C)NC(=O)[C@H](C)N(C)C(=O)[C@H](C(C)C)NC(=O)[C@H](Cc2ccc(-c3ccccc3)cc2)NC1=O [Compound 1904] ({CH2CO}-Y(Carboxymethyl)[4Pal]DWL[Bip]V[NMeA][dL][Dab][Cha]VTC[dDab]-NH2; thioether N-14)	0.01
CC(C)C[C@H]1NC(=O)[C@H](C)N(C)C(=O)[C@H](C(C)(C)O)NC(=O)[C@H](Cc2ccc(-c3ccccc3)cc2)NC(=O)[C@H](C(C)(C)O)NC(=O)[C@H](Cc2c[nH]c3ccccc23)NC(=O)[C@H](CC(=O)O)NC(=O)[C@H](Cc2ccc(C(=O)O)cc2)NC(=O)[C@H](Cc2ccc(OCC(=O)O)cc2)NC(=O)CSC[C@@H](C(=O)N[C@@H](CCN)C(N)=O)NC(=O)[C@H](CCC(=O)O)NC(=O)[C@H](C(C)(C)O)NC(=O)[C@H](CC2CCCCC2)NC(=O)[C@H](CCN)NC1=O [Compound 1713] ({CH2CO}-Y(Carboxymethyl)[Phe(4-COOH)]DW[Val(3-OH)][Bip][Val(3-OH)][NMeA][dL][Dab][Cha][Val(3-OH)]EC[Dab]-NH2; thioether N-14)	0.13
CC(C)C[C@H]1NC(=O)[C@@H]2CCCCN2C(=O)[C@H](Cc2c[nH]cn2)NC(=O)[C@H](Cc2ccc(-c3ccccc3)cc2)NC(=O)[C@H](C(C)C)NC(=O)[C@H](Cc2c[nH]c3ccccc23)NC(=O)[C@H](CC(=O)O)NC(=O)[C@H](Cc2ccc(C(=O)O)cc2)NC(=O)[C@H](Cc2ccncc2)NC(=O)CSC[C@@H](C(=O)N[C@H](C)C(N)=O)NC(=O)[C@H](CO)NC(=O)[C@H](C(C)C)NC(=O)[C@H](CC2CCCCC2)NC(=O)[C@H](CCN)NC1=O [Compound 2125] ({CH2CO}-[4Pal][Phe(4-COOH)]DWV[Bip]H[Pip][dL][Dab][Cha]VSC[dA]-NH2; thioether N-14)	0.04
CC(C)C[C@@H]1NC(=O)[C@H](Cc2c[nH]c3ccccc23)NC(=O)[C@H](CC(=O)O)NC(=O)[C@H](Cc2ccc(C(=O)O)cc2)NC(=O)[C@H](Cc2ccc(OCC(=O)O)cc2)NC(=O)CSC[C@@H](C(N)=O)NC(=O)[C@H](CO)NC(=O)[C@H](C(C)C)NC(=O)[C@H](CC2CCCCC2)NC(=O)[C@H](Cc2cnc[nH]2)NC(=O)[C@@H](CC(C)C)NC(=O)[C@H](C)N(C)C(=O)[C@H](C(C)C)NC(=O)[C@H](Cc2ccc(-c3ccccc3)cc2)NC1=O [Compound 2252] ({CH2CO}-Y(Carboxymethyl)[Phe(4-COOH)]DWL[Bip]V[NMeA][dL]H[Cha]VSC-NH2; thioether N-14)	0.08
CCC(C)[C@@H]1NC(=O)[C@H](Cc2ccc(-c3ccccc3)cc2)NC(=O)[C@H](C(C)C)NC(=O)[C@H](Cc2cccc(C)c2)NC(=O)[C@H](CC(=O)O)NC(=O)[C@H](Cc2ccc(OCC(=O)O)cc2)NC(=O)[C@H](C(C)O)NC(=O)CSC[C@@H](C(=O)N[C@@H](CCCN)C(N)=O)NC(=O)[C@H](C(C)O)NC(=O)[C@H](C(C)(C)O)NC(=O)[C@H](CC2CCCCC2)NC(=O)[C@H](CCN)NC(=O)[C@@H](CC(C)C)NC(=O)[C@H](C)N(C)C1=O (stereo partly drawn) [Compound 2147] ({CH2CO}-[Thr(3ξ)]Y(Carboxymethyl)D[Phe(3-Me)]V[Bip][Ile(3ξ)][NMeA][dL][Dab][Cha][Val(3-OH)][Thr(3ξ)]C[Orn]-NH2; thioether N-14)	0.01
